Our source for the ID50, IC50 and Formation values is ChEMBL document CHEMBL1125139, “Antitumor agents. 113. New 4 beta-arylamino derivatives of 4'-O-demethylepipodophyllotoxin and related compounds as potent inhibitors of human DNA topoisomerase II” (1990).

For assay [1], the target named is DNA topoisomerase II (Homo sapiens) (UniProt P11388+Q02880). In words: Inhibitory activity against human DNA topoisomerase II. Format: protein assay.
Assay [2] is described as follows: Concentration for 50% reduction in cell number after 3-day incubation. Format: functional. As to conditions: Homo sapiens, 72 h; read-out: ID50 (the source's name).
In assay [3] the test system is Nucleic Acid. In words: Inhibition of cellular protein-DNA complex formation at 10 uM. Format: functional. As to conditions: Homo sapiens.

Compound `COc1cc([C@@H]2c3cc4c(cc3[C@@H](Nc3ccccn3)[C@H]3COC(=O)[C@H]23)OCO4)cc(OC)c1O` returned an ID50 in assay [1] of 50 µM. In addition, the IC50 in assay [2] is 0.71 µM. The Formation in assay [3] is 97%.
`COc1cc([C@@H]2c3cc4c(cc3[C@@H](Nc3ccc(F)cc3)[C@H]3COC(=O)[C@H]23)OCO4)cc(OC)c1O` gave an ID50 in assay [1] of 5 µM. Besides, in assay [2], the IC50 stood at 0.24 µM. This compound also yielded a Formation in assay [3] of 213%.
Compound `COC(=O)c1cc(N[C@@H]2c3cc4c(cc3[C@@H](c3cc(OC)c(O)c(OC)c3)[C@H]3C(=O)OC[C@@H]32)OCO4)cc(C(=O)OC)c1` gave an ID50 in assay [1] of 25 µM. In addition, the IC50 in assay [2] was under 1 µM. The same compound came in with a Formation in assay [3] of 50%.
For `CCOC(=O)c1ccc(N[C@@H]2c3cc4c(cc3[C@@H](c3cc(OC)c(O)c(OC)c3)[C@H]3C(=O)OC[C@@H]32)OCO4)cc1` the same measures were 5 µM, 0.84 µM and 207%.
For `COc1cc([C@@H]2c3cc4c(cc3[C@@H](Oc3ccc(O)cc3)[C@H]3COC(=O)[C@H]23)OCO4)cc(OC)c1O`, in that order: 50 µM, under 1 µM and 34%.
For `COc1cc([C@@H]2c3cc4c(cc3[C@@H](Sc3ccc(O)cc3)[C@H]3COC(=O)[C@H]23)OCO4)cc(OC)c1O`, in that order: over 100 µM, under 1 µM and 10%.
As for `COc1cc([C@@H]2c3cc4c(cc3[C@@H](Nc3cnc5ccccc5c3)[C@H]3COC(=O)[C@H]23)OCO4)cc(OC)c1O`, the ID50 in assay [1] stood at 50 µM. Also, in assay [2], the IC50 was under 1 µM. The Formation in assay [3] worked out at 123%.
For `COc1cc([C@@H]2c3cc4c(cc3[C@@H](Nc3cc([N+](=O)[O-])ccc3O)[C@H]3COC(=O)[C@H]23)OCO4)cc(OC)c1O` the same measures were over 100 µM, 1 µM and 15%.
For `COc1cc([C@@H]2c3cc4c(cc3[C@@H](Nc3ccc([N+](=O)[O-])cc3)[C@H]3COC(=O)[C@H]23)OCO4)cc(OC)c1O`, in that order: 10 µM, 0.49 µM and 323%.
For `COc1cc([C@@H]2c3cc4c(cc3[C@@H](Nc3cccc(O)c3)[C@H]3COC(=O)[C@H]23)OCO4)cc(OC)c1O`, in that order: 25 µM, 0.45 µM and 290%.
Compound `COc1cc([C@@H]2c3cc4c(cc3[C@@H](Nc3cccc(N)c3)[C@H]3COC(=O)[C@H]23)OCO4)cc(OC)c1O` had an ID50 in assay [1] of 25 µM. In addition, the IC50 in assay [2] came out at 4 µM. Also, the Formation in assay [3] was 140%.
Consider `COc1cc([C@@H]2c3cc4c(cc3[C@@H](NCCO)[C@H]3COC(=O)[C@H]23)OCO4)cc(OC)c1O`, for which the IC50 in assay [2] was 1.6 µM. Moreover, the Formation in assay [3] came out at 121%.
The compound `COc1cc([C@@H]2c3cc4c(cc3[C@@H](Nc3ccc(N)cc3)[C@H]3COC(=O)[C@H]23)OCO4)cc(OC)c1O` gave an ID50 in assay [1] of 5 µM. In assay [2], the IC50 stood at 0.8 µM. In assay [3], the Formation worked out at 330%.
For `COc1cc([C@@H]2c3cc4c(cc3[C@@H](Nc3ccc(C#N)cc3)[C@H]3COC(=O)[C@H]23)OCO4)cc(OC)c1O`, in that order: 10 µM, 0.64 µM and 211%.
For `COc1cc([C@@H]2c3cc4c(cc3[C@@H](Nc3cccc([N+](=O)[O-])c3)[C@H]3COC(=O)[C@H]23)OCO4)cc(OC)c1O`, the ID50 in assay [1] was 50 µM. In assay [2], the IC50 was 1 µM. The same compound displayed a Formation in assay [3] of 230%.
Take `COc1cc([C@@H]2c3cc4c(cc3[C@@H](Nc3cc(OC)c(OC)c(OC)c3)[C@H]3COC(=O)[C@H]23)OCO4)cc(OC)c1O`: in assay [1], the ID50 is over 100 µM. The IC50 in assay [2] amounted to 0.63 µM. In assay [3], the Formation was 47%.
For `COC(=O)c1cc(N[C@@H]2c3cc4c(cc3[C@@H](c3cc(OC)c(O)c(OC)c3)[C@H]3C(=O)OC[C@@H]32)OCO4)ccc1O` the same measures were 50 µM, 1 µM and 83%.
`COc1cc([C@@H]2c3cc4c(cc3[C@@H](Nc3ccc5c(c3)OCCO5)[C@H]3COC(=O)[C@H]23)OCO4)cc(OC)c1O`: in assay [1], the ID50 was 10 µM. For the same compound, in assay [2], the IC50 is 0.68 µM. The compound also showed a Formation in assay [3] of 279%.
For `COc1cc([C@@H]2c3cc4c(cc3[C@@H](Nc3cccnc3)[C@H]3COC(=O)[C@H]23)OCO4)cc(OC)c1O` the same measures were 50 µM, 0.24 µM and 148%.
For `COc1cc([C@@H]2c3cc4c(cc3[C@@H](Nc3cc(C(F)(F)F)cc(C(F)(F)F)c3)[C@H]3COC(=O)[C@H]23)OCO4)cc(OC)c1O`, in that order: over 100 µM, 3.4 µM and 21%.
For `COC(=O)c1cccc(N[C@@H]2c3cc4c(cc3[C@@H](c3cc(OC)c(O)c(OC)c3)[C@H]3C(=O)OC[C@@H]32)OCO4)c1`, in that order: 50 µM, 2.7 µM and 249%.
In turn, `COc1cc([C@@H]2c3cc4c(cc3[C@@H](Nc3ccccc3)[C@H]3COC(=O)[C@H]23)OCO4)cc(OC)c1O` registered an ID50 in assay [1] of 25 µM. In assay [2], the IC50 came out at 0.71 µM. Moreover, the Formation in assay [3] is 243%.
For `COc1cc([C@@H]2c3cc4c(cc3[C@@H](Nc3ccc5c(c3)OCO5)[C@H]3COC(=O)[C@H]23)OCO4)cc(OC)c1O` the same measures were 50 µM, under 1 µM and 164%.
For `COC(=O)c1ccc(N[C@@H]2c3cc4c(cc3[C@@H](c3cc(OC)c(O)c(OC)c3)[C@H]3C(=O)OC[C@@H]32)OCO4)cc1O`, in that order: 50 µM, 5.8 µM and 129%.
For `COc1cc([C@@H]2c3cc4c(cc3[C@@H](Nc3cccc(C#N)c3)[C@H]3COC(=O)[C@H]23)OCO4)cc(OC)c1O`, in that order: 25 µM, 0.69 µM and 137%.
`COc1cc([C@@H]2c3cc4c(cc3[C@@H](Nc3cccc(C(C)=O)c3)[C@H]3COC(=O)[C@H]23)OCO4)cc(OC)c1O`: the ID50 in assay [1] came out at 50 µM. The IC50 in assay [2] was 1.7 µM. Further, the Formation in assay [3] turned out to be 150%.
On to `COc1cc([C@@H]2c3cc4c(cc3[C@@H](O[C@@H]3O[C@@H]5CO[C@@H](C)O[C@H]5[C@H](O)[C@H]3O)[C@H]3COC(=O)[C@H]23)OCO4)cc(OC)c1O` [ETOPOSIDE], for which the IC50 in assay [2] worked out at 0.2 µM. The compound further registered a Formation in assay [3] of 100%.
In assay [1], `COc1cc([C@@H]2c3cc4c(cc3[C@@H](Oc3ccc(F)cc3)[C@H]3COC(=O)[C@H]23)OCO4)cc(OC)c1O` came in with an ID50 of over 100 µM. Moreover, in assay [2], the IC50 is 0.5 µM. The Formation in assay [3] turned out to be 57%.
For `CCOC(=O)c1ccccc1N[C@@H]1c2cc3c(cc2[C@@H](c2cc(OC)c(O)c(OC)c2)[C@H]2C(=O)OC[C@@H]21)OCO3` the same measures were over 100 µM, 1 µM and 4%.
For `COc1cc([C@@H]2c3cc4c(cc3[C@@H](Nc3ccc(N5CCOCC5)cc3)[C@H]3COC(=O)[C@H]23)OCO4)cc(OC)c1O`, in that order: 10 µM, 0.66 µM and 140%.
For `COc1cc([C@@H]2c3cc4c(cc3[C@@H](Nc3cc(N)ccc3O)[C@H]3COC(=O)[C@H]23)OCO4)cc(OC)c1O`, in that order: over 100 µM, 3.3 µM and 11%.
In the case of `COc1ccc(N[C@@H]2c3cc4c(cc3[C@@H](c3cc(OC)c(O)c(OC)c3)[C@H]3C(=O)OC[C@@H]32)OCO4)cc1OC`, the ID50 in assay [1] came to 25 µM. The IC50 in assay [2] was under 1 µM. Also, the Formation in assay [3] is 180%.
For `COc1cccc(N[C@@H]2c3cc4c(cc3[C@@H](c3cc(OC)c(O)c(OC)c3)[C@H]3C(=O)OC[C@@H]32)OCO4)c1`, in that order: 25 µM, 3.8 µM and 104%.
For `COc1cc([C@@H]2c3cc4c(cc3[C@@H](Nc3cccc(CO)c3)[C@H]3COC(=O)[C@H]23)OCO4)cc(OC)c1O` the same measures were 25 µM, under 1 µM and 235%.
For `COc1cc([C@@H]2c3cc4c(cc3[C@@H](Nc3ccc(Oc5ccccc5)cc3)[C@H]3COC(=O)[C@H]23)OCO4)cc(OC)c1O` the same measures were 25 µM, 1 µM and 97%.
